In patent publication US20150148551A1, “GENISTEIN FOR REDUCING LEVELS OF STORAGE COMPOUNDS IN THE TREATMENT AND/OR PREVENTION OF LYSOSOMAL STORAGE DISEASES (LSDS)” (3G THERAPEUTICS, INC., priority 2012, published 2015):

How the values were obtained:
Format in all cases: cell-based, human
GNS = assay: DNA microarray, GNS expression in fibroblasts exposed to genistein; settings: for GNS fold change Average: 48 h vs DMSO
Experimental: (§1) The experiments were conducted to characterise the transcriptomic profile of human fibroblast cells exposed to genistein, and in particular to determine the expression of genes encoding lysosomal enzymes involved in metabolism (i.e. synthesis and degradation) of organic substances. The absence or deficiency of these enzymes' activity is responsible for occurrence of various lysosomal storage diseases (LSD) (including MPS). The tested hypothesis assumed that genistein influences the expression of many genes, among which there are genes coding for enzymes required in metabolism of compounds, which are pathologically stored in LSD. The results provide important information regarding genistein action on the molecular level within the range of gene expression modulation by this substance. The experiment was conducted in biological quintuplicates. Human dermal fibroblasts (HDFa) were exposed in vitro for 1, 24 or 48 hours to: 30, 60 or 100 μM of genistein; 0.05% DMSO (K1); or were untreated (control cells) (K2), and total RNA was isolated and analysed.
(§2) Fibroblast cells were grown in Dulbecco (DMEM) medium supplemented with 10% fetal bovine serum (FBS) with the addition of 1% antibiotics and anti-fungal agents at 37° C. in humidified atmosphere of 5% CO2, until the required confluency was obtained.
(§3) To determine the effect of tested compound on the transcriptom of the fibroblast cells, the growth medium was replaced with fresh medium, either non-supplemented (0.05% DMSO), or containing genistein (30, 60 or 100 μM, in 0.05% DMSO). The exposure was done for 1, 24 or 48 hours.
(§4) Total RNA was isolated from fibroblasts using High Pure RNA Isolation Kit according to the protocol and then it was quantitatively evaluated using Quant-It™ RiboGreen® Assay Kit.
(§5) Biotinylated cRNA was prepared using Ambion Total PrepAmp Kit for Illumina arrays.
(§6) Standard hybridization and quantitative image analysis procedures—Illumina hybridization protocol and Illumina scanning protocol, were used.
(§7) Processing of the results was done during data definition, including: background correction (using background subtraction method), normalization (using quantile normalization algorithm with Illumina GenomeStudio software package: gene expression module version 1.9.0) and summarization (using method, which sums the values of signal intensities from a set of probes).

SGSH = assay: DNA microarray, SGSH expression in fibroblasts exposed to genistein; settings: for SGSH fold change Average: 48 h vs DMSO
Experimental: as §1, §2, §3, §4, §5, §6, §7

ST3GAL6 = assay: DNA microarray, ST3GAL6 expression in fibroblasts exposed to genistein
Experimental: as §1, §2, §3, §4, §5, §6, §7

MANBA = assay: DNA microarray, MANBA expression in fibroblasts exposed to genistein; settings: for MANBA fold change Average: 48 h vs DMSO
Experimental: as §1, §2, §3, §4, §5, §6, §7

CTSF = assay: DNA microarray, CTSF expression in fibroblasts exposed to genistein; settings: for CTSF fold change Average: 48 h vs DMSO
Experimental: as §1, §2, §3, §4, §5, §6, §7

NEU1 = assay: DNA microarray, NEU1 expression in fibroblasts exposed to genistein; settings: for NEU1 fold change Average: 48 h vs DMSO
Experimental: as §1, §2, §3, §4, §5, §6, §7

ST3GAL2 = assay: DNA microarray, ST3GAL2 expression in fibroblasts exposed to genistein
Experimental: as §1, §2, §3, §4, §5, §6, §7

CD164 = assay: DNA microarray, CD164 expression in fibroblasts exposed to genistein
Experimental: as §1, §2, §3, §4, §5, §6, §7

`O=c1c(-c2ccc(O)cc2)coc2cc(O)cc(O)c12` [genistein, 4′,5,7-trihydroxy-3-phenylchromen-4-one] was tested, and the “GNS fold change Average 1h30/1hK1” value (GNS; 30 μM, 1 h vs 0.05% DMSO) was 1.0062 fold change, the “GNS fold change Average” value (GNS; 30 μM) was 1.2473 fold change and the “GNS fold change Average 1h60/1hK1” value (GNS; 60 μM, 1 h vs 0.05% DMSO) was 1.022 fold change. For the same compound, the “GNS fold change Average” value (GNS; 60 μM) was 1.495 fold change, the “GNS fold change Average 1h100/1hK1” value (GNS; 100 μM, 1 h vs 0.05% DMSO) was 1.0219 fold change and the “GNS fold change Average” value (GNS; 100 μM) was 1.418 fold change. For the same compound, the “SGSH fold change Average 1h30/1hK1” value (SGSH; 30 μM, 1 h vs 0.05% DMSO) was 1.0703 fold change, the “SGSH fold change Average 1h60/1hK1” value (SGSH; 60 μM, 1 h vs 0.05% DMSO) was 1.065 fold change and the “SGSH fold change Average” value (SGSH; 60 μM) was 1.122 fold change. The “SGSH fold change Average 1h100/1hK1” value (SGSH; 100 μM, 1 h vs 0.05% DMSO) was 1.07 fold change, the “SGSH fold change Average” value (SGSH; 100 μM) was 0.9299 fold change and the “ST3GAL6 fold change Average 1h30/1hK1” value (ST3GAL6; 30 μM, 1 h vs 0.05% DMSO) was 1.234 fold change. For the same compound, the “ST3GAL6 fold change Average 24h30/24hK1” value (ST3GAL6; 30 μM, 24 h vs 0.05% DMSO) was 0.9878 fold change, the “ST3GAL6 fold change Average 48h30/48hK1” value (ST3GAL6; 30 μM, 48 h vs 0.05% DMSO) was 1.015 fold change and the “ST3GAL6 fold change Average 1h60/1hK1” value (ST3GAL6; 60 μM, 1 h vs 0.05% DMSO) was 1.072 fold change. The “ST3GAL6 fold change Average 1h100/1hK1” value (ST3GAL6; 100 μM, 1 h vs 0.05% DMSO) was 1.064 fold change, the “ST3GAL6 fold change Average 24h100/24hK1” value (ST3GAL6; 100 μM, 24 h vs 0.05% DMSO) was 0.7371 fold change and the “ST3GAL6 fold change Average 48h100/48hK1” value (ST3GAL6; 100 μM, 48 h vs 0.05% DMSO) was 0.7409 fold change. The “MANBA fold change Average 1h30/1hK1” value (MANBA; 30 μM, 1 h vs 0.05% DMSO) was 1.0095 fold change, the “MANBA fold change Average” value (MANBA; 30 μM) was 1.6385 fold change and the “MANBA fold change Average 1h60/1hK1” value (MANBA; 60 μM, 1 h vs 0.05% DMSO) was 1.041 fold change. For the same compound, the “MANBA fold change Average” value (MANBA; 60 μM) was 2.173 fold change, the “MANBA fold change Average 1h100/1hK1” value (MANBA; 100 μM, 1 h vs 0.05% DMSO) was 0.9489 fold change and the “MANBA fold change Average” value (MANBA; 100 μM) was 2.387 fold change. The “CTSF fold change Average 1h30/1hK1” value (CTSF; 30 μM, 1 h vs 0.05% DMSO) was 1.0096 fold change, the “CTSF fold change Average” value (CTSF; 30 μM) was 1.417 fold change and the “CTSF fold change Average 1h60/1hK1” value (CTSF; 60 μM, 1 h vs 0.05% DMSO) was 0.9505 fold change. The “CTSF fold change Average” value (CTSF; 60 μM) was 1.8 fold change, the “CTSF fold change Average 1h100/1hK1” value (CTSF; 100 μM, 1 h vs 0.05% DMSO) was 0.9458 fold change and the “CTSF fold change Average” value (CTSF; 100 μM) was 2.066 fold change. The “NEU1 fold change Average 1h30/1hK1” value (NEU1; 30 μM, 1 h vs 0.05% DMSO) was 1.2206 fold change, the “NEU1 fold change Average” value (NEU1; 30 μM) was 1.6536 fold change and the “NEU1 fold change Average 1h60/1hK1” value (NEU1; 60 μM, 1 h vs 0.05% DMSO) was 1.323 fold change. For the same compound, the “NEU1 fold change Average” value (NEU1; 60 μM) was 2.259 fold change, the “NEU1 fold change Average 1h100/1hK1” value (NEU1; 100 μM, 1 h vs 0.05% DMSO) was 1.353 fold change and the “NEU1 fold change Average” value (NEU1; 100 μM) was 2.492 fold change. For the same compound, the “ST3GAL2 fold change Average 1h30/1hK1” value (ST3GAL2; 30 μM, 1 h vs 0.05% DMSO) was 1.155 fold change, the “ST3GAL2 fold change Average 24h30/24hK1” value (ST3GAL2; 30 μM, 24 h vs 0.05% DMSO) was 0.7505 fold change and the “ST3GAL2 fold change Average 48h30/48hK1” value (ST3GAL2; 30 μM, 48 h vs 0.05% DMSO) was 0.797 fold change. For the same compound, the “ST3GAL2 fold change Average 1h60/1hK1” value (ST3GAL2; 60 μM, 1 h vs 0.05% DMSO) was 1.467 fold change, the “ST3GAL2 fold change Average 24h60/24hK1” value (ST3GAL2; 60 μM, 24 h vs 0.05% DMSO) was 0.5068 fold change and the “ST3GAL2 fold change Average 1h100/1hK1” value (ST3GAL2; 100 μM, 1 h vs 0.05% DMSO) was 1.338 fold change. For the same compound, the “ST3GAL2 fold change Average 24h100/24hK1” value (ST3GAL2; 100 μM, 24 h vs 0.05% DMSO) was 0.6299 fold change, the “ST3GAL2 fold change Average 48h100/48hK1” value (ST3GAL2; 100 μM, 48 h vs 0.05% DMSO) was 0.7215 fold change and the “CD164 fold change Average 1h30/1hK1” value (CD164; 30 μM, 1 h vs 0.05% DMSO) was 1.0714 fold change. For the same compound, the “CD164 fold change Average” value (CD164; 30 μM, 48 h vs DMSO) was 0.9618 fold change and the “CD164 fold change Average 1h60/1hK1” value (CD164; 60 μM, 1 h vs 0.05% DMSO) was 1.49 fold change.
